As a reminder, the clearance is the volume of plasma or blood freed of the substance per unit of time. Read a high clearance as a high capacity for elimination. Broadly, the half-life is the time needed for the level to fall by half in the phase considered. Lower therefore signals rapid decline. A word on the Vd: it is the apparent volume that relates the amount in the body to the concentration in plasma or blood. What is called bioavailability is the share of a dose that reaches the circulation, judged against a reference dose that is usually intravenous. A low value points to poor availability.

The results in this text go back to ChEMBL document CHEMBL1127854, “Bromobenzofuran-based non-peptide antagonists of angiotensin II: GR138950, a potent antihypertensive agent with high oral bioavailability” (J Med Chem, 1994).

The test system of data set [1] is Rattus norvegicus. As to the kind of experiment: […] antihypertensive activity in renal hypertensive rat at 0.5 mg/kg after 7 hr of oral administration. It is filed as functional.
Data set [2] can be described thus: The compound was tested for plasma clearance in dog. It is filed as ADME, organism-based, Canis lupus familiaris.
For the next data set, the target named is T1, Angiotensin II receptor (Rattus norvegicus, UniProt P29089+P25095+P35351).
T1 sequence (P29089 whole entry): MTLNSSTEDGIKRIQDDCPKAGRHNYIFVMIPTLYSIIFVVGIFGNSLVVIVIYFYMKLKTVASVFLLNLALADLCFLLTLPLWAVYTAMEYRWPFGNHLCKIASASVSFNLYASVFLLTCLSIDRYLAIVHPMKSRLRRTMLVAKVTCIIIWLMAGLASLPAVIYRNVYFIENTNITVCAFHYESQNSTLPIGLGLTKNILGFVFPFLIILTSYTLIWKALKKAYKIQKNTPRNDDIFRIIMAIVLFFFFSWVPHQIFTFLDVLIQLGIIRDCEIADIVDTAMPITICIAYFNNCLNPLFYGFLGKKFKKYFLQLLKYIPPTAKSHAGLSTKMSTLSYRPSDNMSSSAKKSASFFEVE
T1 sequence (P25095 whole entry): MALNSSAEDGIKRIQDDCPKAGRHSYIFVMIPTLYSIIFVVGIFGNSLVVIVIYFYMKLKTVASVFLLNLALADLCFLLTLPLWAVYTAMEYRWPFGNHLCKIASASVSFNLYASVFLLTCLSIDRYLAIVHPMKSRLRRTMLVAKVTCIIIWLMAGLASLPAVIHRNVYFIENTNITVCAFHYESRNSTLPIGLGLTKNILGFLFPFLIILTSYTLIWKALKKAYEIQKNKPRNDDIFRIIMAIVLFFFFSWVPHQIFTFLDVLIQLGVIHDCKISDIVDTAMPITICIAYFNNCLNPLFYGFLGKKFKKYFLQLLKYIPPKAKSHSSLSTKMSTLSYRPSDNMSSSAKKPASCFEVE
T1 sequence (P35351 whole entry): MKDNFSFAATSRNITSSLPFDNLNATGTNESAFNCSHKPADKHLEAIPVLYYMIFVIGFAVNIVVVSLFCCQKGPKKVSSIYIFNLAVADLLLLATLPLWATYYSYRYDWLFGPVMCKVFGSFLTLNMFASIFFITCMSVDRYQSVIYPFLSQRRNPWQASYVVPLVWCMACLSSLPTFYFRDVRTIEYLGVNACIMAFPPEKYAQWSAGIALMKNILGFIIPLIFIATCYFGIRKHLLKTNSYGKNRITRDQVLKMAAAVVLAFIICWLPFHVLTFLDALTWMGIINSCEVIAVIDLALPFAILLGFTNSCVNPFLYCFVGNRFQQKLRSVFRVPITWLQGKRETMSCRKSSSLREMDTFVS
As to the kind of experiment: Tested for in vitro binding affinity against angiotensin II receptor of rat liver.

Data set [3] concerns Rattus norvegicus. As to the kind of experiment: […] antihypertensive activity in renal hypertensive rat at 0.5 mg/kg after 5 hr of oral administration. It is filed as functional.
The test system of data set [4] is Rattus norvegicus. As to the kind of experiment: […] antihypertensive activity in renal hypertensive rat at 0.5 mg/kg after 24 hr of oral administration. It is filed as functional.
Data set [5] is described as follows: Half-life in plasma of dog. It counts as ADME, organism-based, Canis lupus familiaris.
Data set [6] in a line: The compound was tested for volume of distribution in dog. It counts as ADME, organism-based, Canis lupus familiaris. To be noted: in vivo.
The subject of data set [7] is Rattus norvegicus. As to the kind of experiment: In vivo antihypertensive activity in renal hypertensive rat at 1.0 mg/kg after 5 hr of oral administration.
The subject of data set [8] is Rattus norvegicus. The data set can be described thus: Tested for […] antihypertensive activity in renal hypertensive rat at 1 mg/kg after 7 hr of oral administration. It counts as functional.
In data set [9] the test system is Rattus norvegicus. The data set can be described thus: Tested for […] antihypertensive activity in renal hypertensive rat at 1 mg/kg after 5 hr of oral administration. It counts as functional.
Data set [10] deals with Rattus norvegicus. As to the kind of experiment: Tested for […] antihypertensive activity in renal hypertensive rat at 1 mg/kg after 24 hr of oral administration. It counts as functional.
Data set [11] can be described thus: Half-life in plasma of rat at dose of […]-[…] mgkg. It counts as ADME, organism-based.
The nature of data set [12]: Bioavailability in rat (dose 3-10 mg/kg). It counts as ADME, organism-based. To be noted: in vivo.
A short description of data set [13]: The compound was tested for plasma clearance in rat at dose of 3-10 mgkg. It counts as ADME, organism-based.
The nature of data set [14]: The compound was tested for volume of distribution in rat at dose of 3-10 mgkg. To be noted: in vivo. It counts as ADME, organism-based.
The nature of data set [15]: Half-life in plasma of rat. It counts as ADME, organism-based.
A short description of data set [16]: Bioavailability in rat. To be noted: in vivo. It counts as ADME, organism-based.
Data set [17] in a line: The compound was tested for plasma clearance in rat. It counts as ADME, organism-based.
Data set [18] in a line: The compound was tested for volume of distribution in rat. It is filed as ADME, organism-based. The conditions noted are these: in vivo.

Take `CCc1nc(C2CC2)c(C(N)=O)n1Cc1ccc2oc(-c3ccccc3NS(=O)(=O)C(F)(F)F)c(Br)c2c1`: the Activity is -76 in the data set with Rattus norvegicus [1], -66 with Rattus norvegicus [3] and -38 with Rattus norvegicus [4]. In data set [2], this molecule came in with a clearance of 1.6 mL/min/kg. At Angiotensin II receptor, the “Log Ki” value was -9.3. This molecule also had a half-life in data set [5] of 558 min. Further, the volume of distribution (Vd) in [6] was 0.9 L/kg.

For the molecule `CCc1nc(C2CC2)c(C(N)=O)n1Cc1ccc2oc(-c3ccccc3NS(=O)(=O)C(F)(F)F)c(C(F)(F)F)c2c1`, the Activity with Rattus norvegicus [1] is listed as -49; in the data set on Rattus norvegicus [7], -48; with Rattus norvegicus [4], -17. Further, at Angiotensin II receptor, the “Log Ki” value is listed as -9.

As to `CCNC(=O)c1c(C2CC2)nc(CC)n1Cc1ccc2oc(-c3ccccc3C(=O)O)c(Br)c2c1`, the Activity with Rattus norvegicus [8] was 0; with Rattus norvegicus [9] it was 6; in the data set with Rattus norvegicus [10] it was 4. At Angiotensin II receptor, the “Log Ki” value was -8.6.

For `CCc1nc(C2CC2)c(C(N)=O)n1Cc1ccc2oc(-c3ccccc3NS(=O)(=O)C(F)(F)F)c(Cl)c2c1`, the Activity in the data set with Rattus norvegicus [1] is -60; in the data set with Rattus norvegicus [7], -57; in the data set with Rattus norvegicus [4], -42. Moreover, on Angiotensin II receptor, the “Log Ki” value is listed as -8.9.

Regarding `CCCCc1nc(Cl)c(C(=O)NC)n1Cc1ccc2oc(-c3ccccc3NS(=O)(=O)C(F)(F)F)c(Br)c2c1`, the Activity with Rattus norvegicus [8] is recorded as -45; in the data set on Rattus norvegicus [9], -40; in the data set with Rattus norvegicus [10], 7. For the same molecule, the “Log Ki” value on Angiotensin II receptor is listed as -8.8.

`CCCCc1nc(Cl)c(CO)n1Cc1ccc2oc(-c3ccccc3-c3nn[nH]n3)c(Br)c2c1` showed a half-life in data set [11] of 60 min. The molecule also returned a bioavailability in data set [12] of 37%. The molecule further showed a clearance in [13] of 18 mL/min/kg. Besides, the volume of distribution (Vd) in data set [14] is 1.3 L/kg.

Consider `CCCc1nc(C)c(C(=O)NCC)n1Cc1ccc2oc(-c3ccccc3NS(=O)(=O)C(F)(F)F)c(Br)c2c1`, for which the Activity in the data set with Rattus norvegicus [1] is reported as -48; in the data set with Rattus norvegicus [3], -33; in the data set on Rattus norvegicus [4], -30. Moreover, in [15], the half-life is 270 min. For the same molecule, at Angiotensin II receptor, the “Log Ki” value was -9.5. Further, the bioavailability in data set [16] amounted to 90%. Further, the clearance in [17] amounted to 29 mL/min/kg. In data set [18], this molecule registered a Vd of 11 L/kg.
